Values of other authors in US7629342B2, “Azabicyclic heterocycles as cannabinoid receptor modulators” (Bristol-Myers Squibb Company, priority 2005, dated 2009).

Columns and labels:
[1] = highest dose; relative to 14.8% for placebo
[2] = 16 week trial period, Phase IIb
[3] = chronic administration for two weeks

Row | Structure (SMILES) | patients stayed abstinent from cigarette smoke [1] [%] | body weight in human subjects [2] | body weight [3]
1 | Cc1c(C(=O)NN2CCCCC2)nn(-c2ccc(Cl)cc2Cl)c1-c1ccc(Cl)cc1 [SR-141716] | 30.2 | dose-dependently reduced body weight | –
2 | Cc1c(C(=O)NN2CCCCC2)nn(-c2ccc(Cl)cc2Cl)c1-c1ccc(I)cc1 [AM-251] | – | – | substantial body weight reduction
